The values that follow are results of earlier work, collected in patent US20020046426A1, “Application of carbonyl compounds in the process of tanning hides” (RHODIA BRASIL LTDA., priority 1999, published 2002).

The term LD50 denotes the dose expected to kill half of the subjects tested.

One data set deals with mice. The conditions noted are these: mouse, in vivo, po.

`CC(O)CC=O` (centres unmarked) [aldol, 3-hydroxyl butanal]: the LD50 with mice is listed as 2180 mg/kg.

Take `C/C=C/C=O` [crotonaldehyde, 2-butenal]: the “irritation to the eyes” value in the data set on eyes was “extremely irritant to the eyes”.
